From US10023610B2, “Ligands for prevention of neurotoxicity of the alzheimer's disease related amyloid-beta peptide” (AlphaBeta AB, priority 2014, dated 2018) come the findings set out here.

Assay [1] deals with kainate-induced gamma oscillations. The assay is described as follows: Control: ligands alone on kainate-induced gamma oscillations in hippocampal slices (absence of Aβ). It counts as cell-based, C57BL/6 mice. Here is the method:
(§1) Experiments were carried out in accordance with ethical permit granted by Norra Stockholms Djurförsöksetiska Nämnd to AF (N45/13). C57BL/6 mice of either sex (postnatal days 14-23, supplied from Charles River, Germany) were used in all experiments. The animals were deeply anaesthetized using isofluorane before being sacrificed by decapitation.
(§2) The brain was dissected out and placed in ice-cold ACSF (artificial cerebrospinal fluid) modified for dissection. This solution contained (in mM); 80 NaCl, 24 NaHCO3, 25 Glucose, 1.25 NaH2PO4, 1 Ascorbic acid, 3 NaPyruvate, 2.5 KCl, 4 MgCl2, 0.5 CaCl2, 75 Sucrose. Horizontal sections (350 μm thick) of the ventral hippocampi of both hemispheres were prepared with a Leica VT1200S vibratome (Microsystems, Stockholm, Sweden). Immediately after slicing sections were transferred to a submerged incubation chamber containing standard ACSF (in mM): 124 NaCl, 30 NaHCO3, 10 Glucose, 1.25 NaH2PO4, 3.5 KCl, 1.5 MgCl2, 1.5 CaCl2. The chamber was held at 34° C. for at least 20 minutes after dissection. It was subsequently allowed to cool to ambient room temperature (19-22° C.) for a minimum of 40 minutes. Peptides were added to the incubation solution 15 minutes before transferring slices to the interface-style recording chamber. While incubating slices were continuously supplied with carbogen gas (5% CO2, 95% O2) bubbled into the ACSF. Chemical compounds used in intracellular and extracellular solutions were obtained from Sigma-Aldrich Sweden AB (Stockholm, Sweden). The Kainic acid was obtained from Tocris.
(§3) Recordings were carried out in hippocampal area CA3 with borosilicate glass microelectrodes, pulled to a resistance of 3-7 MO. Local field potentials (LFP) were recorded at 34° C. using microelectrodes filled with ACSF placed in stratum pyramidale. LFP oscillations were elicited by applying kainic acid (100 nM) to the extracellular bath. The oscillations were allowed to stabilize for 20 minutes before any recordings were carried out. LFP recordings were performed with a 4 channel amplifier/signal conditioner M102-amplifier (Electronics lab, Faculty of Mathematics and Natural Sciences, University of Cologne, Cologne, Germany). The signals were sampled at 10 kHz, conditioned using a Hum Bug 50 Hz noise eliminator (Quest Scientific, North Vancouver, BC, Canada), software low-pass filtered at 1 kHz, digitized and stored using a Digidata 1322A and Clampex 9.6 software (Molecular devices, CA, USA).
(§4) Power spectral density plots (from 60 s long LFP recordings) were calculated in averaged Fourier-segments of 8192 points using Axograph X (Kagi, Berkeley, Calif., USA). Oscillation power was calculated by integrating the power spectral density between 20 and 80 Hz. Data is reported as means±standard errors of the means in the text and as median and upper/lower quartile in the figure box plots. For statistical analysis the Mann-Whitney U-test was used.

Assay [2] concerns the target T1, Aβ1-42 (Homo sapiens, UniProt P05067).
T1 construct: Samples of Aβ1-42 peptide (5 μM) alone or mixed with 5 or 25 μM of each ligand
Nature of the assay: Prevention of Aβ-induced decrease of kainate-induced gamma oscillations in hippocampal slices (LFP, area CA3). The assay is classed as cell-based, C57BL/6 mice. The procedure:
as §1, §2, §3, §4

In assay [3] the target is T1, Aβ1-42. Nature of the assay: Electron microscopy of fibril formation from Aβ1-42 in the presence of ligands. Conditions: Aβ1-42 5 μM with 5 or 25 μM ligand, 37° C., 9 hours. It counts as biochemical. The procedure:
Samples of Aβ1-42 peptide (5 μM) alone or mixed with 5 or 25 μM of each ligand in a volume of 100 μl, were incubated at 37° C. for 9 hours. Aliquotes of 2 μl were taken from the different samples, adsorbed on copper grids and negatively stained with 2.5% uranyl acetate in 50% ethanol. The samples were examined and photographed using a Hitachi H7100 microscope operated at 75 kV.

Setting [4] is: 250 nM ligand with 50 nM Aβ, 15 min incubation.
[5] abbreviates: 50 nM ligand, equimolar (1:1) to 50 nM Aβ1-42, 15 min incubation.

“Also recorded” adds a separate entry of the source.

T1 sequence (P05067 672-713 limits assumed): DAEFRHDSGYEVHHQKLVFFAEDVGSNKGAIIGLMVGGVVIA

As to `CCCCCCCCCC(=O)NCCNC[C@H](N)C(=O)N[C@H](Cc1c[nH]c2ccccc12)C(=O)NCC[C@@H](NC(=O)CCCC(=O)O)C(=O)O` [DH18, (R)—N^4—[N^2—(N^3—(N-decanoyl-2-aminoethyl)-(S)-2,3-diaminopropionyl)-D-tryptophanyl]-N^2-glutanoyl-2,4-diaminobutanoic acid], the “effect of ligand alone on kainate-induced gamma oscillations” value (“effect of ligand alone” below) in assay [1] is given as “no effect”.

Turning to `N=C(N)CCNCCCC(N)C(=O)NC(Cc1c[nH]c2ccccc12)C(=O)NCCC(NC(=O)CCCC(=O)O)C(=O)O` (centres unmarked) [Pep1b, reference compound], the “prevention of the Aβ-induced decrease of kainate-induced gamma oscillations” value on Aβ1-42 [2] (setting [4]) is “only partial prevention”. Besides, in assay [1], the “effect of ligand alone” value is on record as “neither of these ligands had an effect”. In addition, at Aβ1-42 [3], the “fibril formation by Aβ1-42 (electron microscopy)” value (“fibril formation” below) was “fibrils were formed but to somewhat lesser extent”.

For `CCCCCCCCCC(=O)NCCNC[C@H](N)C(=O)N[C@H](CCN1C(=O)c2cccc3c(N(C)C)ccc(c23)C1=O)C(=O)NCC[C@@H](NC(=O)CCCC(=O)O)C(=O)O` [DH18_Dmn, HO-Gla-D-Dab-(COOH)-D-DMNA-L-Dap-(NH2)-AE-decanoyl], the “effectiveness in preventing Aβ-induced degradation of network gamma oscillations compared with first generation ligands” value at Aβ1-42 [2] is on record as “more effective than first generation ligands”. On Aβ1-42 [2] (setting [5]), the “prevention of the Aβ-induced decrease of kainate-induced gamma oscillations” value is given as “complete prevention; also recorded: effective also at only a 1:1 ratio; also recorded: reverse Aβ-induced reduction of gamma oscillation; also recorded: prevention of Aβ-induced degradation of network gamma oscillations”. Moreover, the “effect of ligand alone” value in assay [1] is given as “neither of these ligands had an effect”. The “fibril formation” value on Aβ1-42 [3] is recorded as “less fibrils”.

Turning to `CCCCCCCC[C@H](N)CNCC[C@H](N)C(=O)N[C@H](CCN1C(=O)c2cccc3c(N(C)C)ccc(c23)C1=O)C(=O)NCC[C@@H](NC(=O)CCCC(=O)O)C(=O)O` [8AEDabDmnDabGla, HO-Gla-D-Dab-(COOH)-D-DMNA-L-Dap-(NH2)—CH2CH(NH2)—C8], on Aβ1-42 [3], the “fibril formation” value is recorded as “less fibrils”.

With `NC(=O)CCCCCCCCCCC(=O)NCCNC[C@H](N)C(=O)N[C@H](Cc1c[nH]c2ccccc12)C(=O)NCC[C@@H](NC(=O)CCCC(=O)O)C(=O)O` [DH20, (R)—N^4—[N^2—(N^3—(N-(12-amino-12-oxododecanoyl)-2-aminoethyl)-(S)-2,3-diaminopropionyl)-D-tryptophanyl]-N^2-glutanoyl-2,4-diaminobutanoic acid], the “effectiveness in preventing Aβ-induced degradation of network gamma oscillations compared with first generation ligands” value on Aβ1-42 [2] is given as “more effective than first generation ligands”. Further, the “prevention of the Aβ-induced decrease of kainate-induced gamma oscillations” value was “complete prevention” at Aβ1-42 [2] (setting [5]); “effective also at only a 1:1 ratio; also recorded: reverse Aβ-induced reduction of gamma oscillation” at Aβ1-42 [2] (50 nM ligand, equimolar (1:1) to 50 nM Aβ1-42, 15 min incubation, listed as DH-20); “complete prevention; also recorded: reverses Aβ-induced reduction of gamma oscillation” at Aβ1-42 [2] (setting [4]). Further, the “effect of ligand alone” value in assay [1] is “neither of these ligands had an effect; also recorded: no effect”. Besides, the “fibril formation” value on Aβ1-42 [3] is recorded as “less fibrils”.

Turning to `CCCCCCCCCC(=O)NCCNCCN` [Dec-DETA, reference compound], on Aβ1-42 [2] (setting [4]), the “prevention of the Aβ-induced decrease of kainate-induced gamma oscillations” value is reported as “higher prevention”. The “effect of ligand alone” value in assay [1] is “neither of these ligands had an effect”.
